From patent US20240156742A1, “TARGETED MULTIFUNCTIONAL NANOSTRUCTURED LIPID CARRIERS” (TECHNION RESEARCH & DEVELOPMENT FOUNDATION LIMITED, priority 2021, published 2024)

How the values were obtained:
[1] = test system: PC-3 non-target cells (PSMA-negative PC cell line); assay: XTT growth inhibition assay, PC-3; type: cell-based; details: Homo sapiens; free drug in growth medium for 72 hr
Experimental: (§1) The selective growth inhibition of CTX-loaded NPs was studied in LNCaP target cells and PC-3 non-target cells, using an XTT-based colorimetric cell proliferation kit as previously described. The preparation of CTX-loaded NPs was performed as described and had undergone 24 hr dialysis before cell exposure, to simulate the conditions in the human body. The dialysis was conducted as described in the “Kinetic profile of in vitro drug release” in the materials and methods section, but with the use of 10% FBS to capture the released CTX. Prior to the experiment, 96-well plates were coated with poly-L-Lysine before cell plating. LNCaP and PC-3 cells were seeded in 96-well plates at 5×10^4 and 2.5×10^4 cells/ml, respectively, and incubated overnight to allow for cell attachment. Following exposure of cells to CTX-loaded NPs at increasing CTX concentrations of 0.001-100 nM for 24 hr, cells were incubated for additional 72 hr with fresh growth medium. Cellular growth inhibition was determined by adding the XTT reagent. Data were plotted using a nonlinear curve fitting of a sigmoidal model (Hill1) with OriginPro 9.0 to obtain a dose-response curve according to Equation (3): […]

[2] = test system: LNCaP target cells (PSMA-positive PC cell line); assay: XTT growth inhibition assay, LNCaP; type: cell-based; details: Homo sapiens, free drug in growth medium for 72 hr
Experimental: as §1

[3] = Kinetic profile of in vitro drug release by dialysis; type: physicochemical; details: dialysis in PBS pH 7.4 with 0.1% Tween 80, 37° C., 72 hr; burst within first 10 hr
Experimental: The kinetics of in vitro release of drugs from the loaded NPs and free drugs were studied by the dialysis method. One (1) ml of drug-loaded NPs or free drugs (both systems in DW) were placed in dialysis bags (molecular weight cutoff of 3.5 kDa, Sigma-Aldrich, Merck, Rehovot, Israel) and incubated in 30 ml volume of plasma simulating buffer comprising phosphate-buffered saline (PBS, 10 mM, pH 7.4) containing 0.1% tween 80 for 72 hr, at 37° C., with continuous gentle agitation. At defined time intervals (0, 2, 4, 6, 10, 23, 29, 36, 47, 58, 72 hr), the dialysate was collected and replaced by the same volume of fresh release buffer. To calculate the cumulative release of drugs, the dialysates from each time point were freeze-dried, dissolved in EtOH or DMSO for CTX or ENZ extraction, respectively, filtered through 0.45 μm membrane, and quantified using RP-HPLC, as described above. The results are presented as means of two experiments±SE.
The kinetics of in vitro release of CTX and ENZ from NPs were assessed by dialysis in a large volume of a plasma-simulating buffer for 72 hr at 37° C., with continuous mixing. […] At defined time intervals, the dialysate was replaced with a fresh buffer, and the drug was quantified using RP-HPLC. […]

[4] = test system: LNCaP cells; details: exposure for 48 hr; cited from earlier work

Row | IC50 [1] [nM] | IC50 [2] [nM] | in vitro release profile [3] | Compound | IC50 [4] [nM]
1 | 0.18 ± 0.04 | 0.25 ± 0.04 | burst release | CO[C@H]1C(=O)[C@]2(C)[C@@H](OC)C[C@H]3OC[C@@]3(OC(C)=O)[C@H]2[C@H](OC(=O)c2ccccc2)[C@]2(O)C[C@H](OC(=O)[C@H](O)[C@@H](NC(=O)OC(C)(C)C)c3ccccc3)C(C)=C1C2(C)C [free CTX, Cabazitaxel] | 2.6 to 3.1
2 | – | – | burst release | CNC(=O)c1ccc(N2C(=S)N(c3ccc(C#N)c(C(F)(F)F)c3)C(=O)C2(C)C)cc1F [unencapsulated ENZ, Enzalutamide] | –
